The target of test [1] is T1, endogenous human RUP43 (Homo sapiens, UniProt Q8TDU6).
T1 sequence (Q8TDU6 1-330): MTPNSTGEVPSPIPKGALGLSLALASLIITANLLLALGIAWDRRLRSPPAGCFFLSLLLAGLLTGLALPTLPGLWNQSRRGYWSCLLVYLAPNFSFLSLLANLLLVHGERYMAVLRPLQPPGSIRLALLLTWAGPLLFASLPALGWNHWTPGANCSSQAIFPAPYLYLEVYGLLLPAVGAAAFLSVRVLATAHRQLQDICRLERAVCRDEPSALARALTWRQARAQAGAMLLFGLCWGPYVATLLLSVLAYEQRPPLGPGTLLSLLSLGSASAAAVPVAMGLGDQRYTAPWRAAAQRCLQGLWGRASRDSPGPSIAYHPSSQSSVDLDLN
The test can be described thus: Whole-cell cyclase Flashplate cAMP assay, RUP43-transfected HEK293 cells. Type of test: cell-based. Further details: expressed in transfected cells; host or cells: HEK293 cells (ATCC), transient transfection with FuGENE 6. On the procedure:
(§1) HEK 293 cells obtained from ATCC were used for all assays. Culture media consisted of […] of DMEM supplemented with 10% fetal bovine serum (Gibco, BRL). Cyclic AMP measurements were determined using the Adenylyl Cyclase Activation Flashplate® Assay with direct cAMP [^125I] Detection system.
(§2) HEK 293 cells (5×10^5 cells/ml) were plated in 15 cm dishes. […] Briefly, transfection mixture consisting of OptiMEM (Gibco, BRL) and FuGENE 6 reagent were mixed together and allow to incubate for 5 minutes at room temperature. Transfection reagent was added drop-wise into a separate tube containing 2 μg of endogenous human RUP43 receptor plasmid (Tranfected) or 2 μg of empty pCMV vector (Mock) and allowed to incubate for 15 minutes at room temperature. The DNA/transfection mixture was added drop-wise to each perspective plate and incubated over night in a humidified incubator maintained at 37° C., 95/5% […]. The next day, the media was replaced with normal growth media and the cells were incubated over night.
(§3) On Day 3, the cells were rinsed once with PBS and dislodged from the plate using a nonenzymatic cell-dissociation buffer (Gibco, BRL) and resuspended in assay stimulation Buffer® Perkin Elmer) at a density of 2×10^6 cell/ml for measurement of cAMP. […] At the end of the 2 hour incubation, the plate was aspirated and cAMP levels were determined using Wallac 1450 microbeta counter.
Background: Changes in cAMP serve as a functional read-out for many G protein-coupled receptors.

The subject of test [2] is Mock transfected HEK293 cells (empty pCMV vector). The experiment in a line: Whole-cell cyclase Flashplate cAMP assay, Mock transfected HEK293 cells. Format: cell-based, human. The following applies: serially diluted compound, 1 hour. The method, then: as §1, §2, §3
In test [3] the target is T1, endogenous human RUP43. The test can be described thus: Melanophore assay. Format: cell-based. On the set-up: expressed in transfected cells; host or cells: melanophores (skin cells of lower vertebrates), transfected by electroporation. From the text:
Melanophores are skin cells found in lower vertebrates. They contain pigmented organelles termed melanosomes. Melanophores are able to redistribute these melanosomes along a microtubule network upon G-protein coupled receptor (GPCR) activation. The result of this pigment movement is an apparent lightening or darkening of the cells. In melanophores, the decreased levels of intracellular cAMP that result from activation of a […] receptor cause melanosomes to migrate to the center of the cell, resulting in a dramatic lightening in color. If cAMP levels are then raised, following activation of a Gs-coupled receptor, the melanosomes are re-dispersed and the cells appear dark again. The increased levels of diacylglycerol that result from activation of Gq-coupled receptors can also induce this re-dispersion. In addition, the technology is also suited to the study of certain receptor tyrosine kinases. The response of the melanophores takes place within minutes of receptor activation and results in a simple, robust color change. The response can be easily detected using a conventional absorbance microplate reader or a modest video imaging system. Unlike other skin cells, the melanophores derive from the neural crest and appear to express a full complement of signaling proteins. In particular, the cells express an extremely wide range of G-proteins and so are able to functionally express almost all GPCRs.
Melanophores can be utilized to identify compounds, including natural ligands, against GPCRs. This method can be conducted by introducing test cells of a pigment cell line capable of dispersing or aggregating their pigment in response to a specific stimulus and expressing an exogenous clone coding for the GCPR. A stimulant, e.g., melatonin, sets an initial state of pigment disposition wherein the pigment is aggregated within the test cells if activation of the GPCR induces pigment dispersion. […] The test cells are then contacted with chemical compounds, and it is determined whether the pigment disposition in the cells changed from the initial state of pigment disposition. […]

Test [4] concerns primary human skeletal muscle cells. The experiment in a line: In vitro glucose uptake assay in primary human skeletal muscle cells. Format: cell-based. The method, then:
(§4) The in vitro glucose uptake assay was carried out as described here.
(§5) KRPH buffer: 5 mM NaHPO4, pH 7.4 (Make KRPH buffer fresh each time) • 20 mM Hepes, pH 7.4 • 1 mM MgSO4 • 1 mM CaCl2 • 136 mM NaCl • 4.7 mM KCl • 1% BSA
(§6) For each well, add 1 μl containing 1 μCi [^3H]-2-DOG and 1 μl cold stock 2-DOG and 2 ml KRPH.
(§7) Use CytoB at 10 μM final to block carrier-mediated uptake. Also use this concentration at the end to stop the reaction. The stop buffer is PBS plus 10 μm CytoB (“PBS”).
(§8) 1. Starve cells for at least 2 hrs.
(§9) 2. Wash cells 2 times with KRPH buffer and add 2 mls of KRPH to the well.
(§10) 3. Treat cells with insulin and/or with test compound, or with vehicle (Control), for 20 min.
(§11) 4. After 20 min, aspirate the buffer from the well and immediately add 1 ml of KRPH buffer plus 2-DOG. For CytoB-treated cells, add CytoB 5 min before uptake assay.
(§12) 5. After 4 min, aspirate the buffer from the well and add 3 mls of cold PBS. After completing the assay, wash the cells in each well 2 times with cold PBS. Aspirate the Stop PBS completely, and then add 700 ul of 1% Triton X. Place in 37° C. incubator for 30 min.
(§13) 6. Count CPM in total lysate. Calculate CPM/well.
(§14) Subtract the CytoB value from the value obtained for each of cells treated with insulin and/or with test compound and cells treated with vehicle (Control).
Primary human skeletal muscle cells obtained from Cambrex were grown to 50% confluence and then differentiated on culture with inducing medium for 5 to 7 days. The differentiated primary human skeletal muscle cells were then transferred to growth medium for 7 to 10 days.
Differentiated human skeletal muscle cells were treated with or without various concentrations of Compound 2 in serum-free medium for 3 hr. After treatment with or without Compound 2, the cells were washed twice with fresh KRPH buffer. […] After treatment with or without insulin, glucose uptake was determined according to Example 17. […]
Differentiated human skeletal muscle cells were treated with 50 μM Compound 2 for various time periods. At the end of each treatment period, glucose uptake was determined according to Example 17.

The subject of test [5] is mouse 3T3L1 adipocytes. The test can be described thus: In vitro glucose uptake assay in 3T3L1 adipocytes. Format: cell-based. On the procedure: as §4, §5, §6, §7, §8, §9, §10, §11
5. After 4 min, aspirate the buffer from the well and add 3 mls of cold PBS. After completing the assay, wash the cells in each well 2 times with cold PBS. […]
Differentiated mouse 3T3L1 adipocytes were treated with 50 μM Compound 2 for various times, after which glucose uptake was determined according to Example 17.
Differentiated mouse 3T3L1 adipocytes were treated with (“Compound 2”) or without (“Control”) Compound 2 in serum-free medium for 3 hr. […] After treatment with insulin, glucose uptake was determined according to Example 17.

Test [6] has as its system primary human adipocytes. The test can be described thus: In vitro glucose uptake assay in primary human adipocytes. The following applies: 50 μM for 3 hr. Format: cell-based. The method, then: as §4, §5, §6, §7, §8, §9, §10, §11, §12, §13, §14
Human preadipocytes (Cambrex) were differentiated into adipocytes. The differentiated primary human adipocytes were treated with or without 50 μM Compound 2 for 3 hr in serum-free medium. The human adipocytes were then washed with fresh KRPH buffer twice and treated with or without 100 nM insulin for 20 min. After treatment with or without insulin, glucose uptake was determined according to Example 17.

In test [7] the test system is rat L6 myoblast cells. The test can be described thus: In vitro glucose uptake assay in L6 myoblast cells. Format: cell-based. The method, then:
as §4, §5, §6, §7, §8, §9, §10, §11, §12, §13, §14
Rat skeletal muscle L6 myoblast cells were obtained from ATCC and grown in 24-well plates to confluence.
Confluent L6 cells were treated with or without various concentrations of Compound 2 in serum-free medium for 3 hr. The L6 cells were then washed twice with KRPH buffer. L6 cells which had been treated with Compound 2 were incubated with KRPH buffer for 20 min; L6 cells which had not been treated with Compound 2 were treated with 10 nM or 100 nM insulin for 20 min. After treatment with or without insulin, glucose uptake was determined according to Example 17. […] As skeletal muscle cells are responsible for 80% of glucose disposal in vivo, the results obtained indicate that RUP43 agonist is an attractive candidate for providing better glucose disposal in vivo than does insulin.
Confluent L6 myoblast cells were treated with 50 μM Compound 2 for various times. At the end of each treatment period, glucose uptake was determined according to Example 17.
Confluent rat L6 myoblast cells were treated with or without 50 μM Compound 2 for 3 hr in serum-free medium. The L6 cells were then washed twice with fresh KRPH buffer. The L6 cells were then treated with or without 100 nM insulin for 20 min. After treatment with or without insulin, glucose uptake was determined according to Example 17. […] The results further indicate that RUP43 agonist can increase insulin efficacy, thereby lowering the concentration of insulin required to achieve maximal glucose uptake. […]

Where [8] appears, read: various concentrations 3 hr vs 10 nM or 100 nM insulin 20 min.

Entries after “also recorded” stand apart in the source; their conditions may differ.

In the case of `CN(C(=O)c1csc(C2CCN(C(=O)Cc3ccccc3Cl)CC2)n1)c1c2c(nn1C)CCCC2` [Compound 1, 2-{1-[2-(2-Chloro-phenyl)-acetyl]-piperidin-4-yl}-thiazole-4-carboxylicacid methyl-(2-methyl-4,5,6,7-tetrahydro-2H-indazol-3-yl)-amide], the “intracellular cAMP” value in test [1] (HEK293 cells transfected with endogenous human RUP43, serially diluted compound, 1 hour) is listed as “in a dose dependent manner, led to an increase in intracellular cAMP”; in test [2] it was “not in Mock transfected cells”. The “agonist of RUP43 (identification)” value in test [1] (whole-cell cAMP, HEK293 transfected with endogenous human RUP43) is “agonist of RUP43”.

Regarding `O=C(Cc1ccccc1Cl)N1CCC(c2nc(C(=O)N3CCCc4ccccc43)cs2)CC1` [Compound 2, 2-(2-Chloro-phenyl)-1-{4-[4-(3,4-dihydro-2H-quinoline-1-carbonyl)-thiazol-2-yl]-piperidin-1-yl}-ethanone], the “agonist of RUP43 (identification)” value in test [3] (melanophore technology) is reported as “agonist of endogenous human RUP43”. The same compound displayed an EC50 in test [3] (melanophores transfected with endogenous human RUP43, 100 uM-51.2 pM, one hour) of 212 nM. Moreover, in test [3] (percent control response vs positive control wells (200) and negative control wells (100)), the Curve height entry is recorded as “approximately 92 % of control”. The “time course of glucose uptake” value in test [4] (50 μM for various time periods) is on record as “rapid stimulation of glucose uptake”. Moreover, the “glucose uptake compared with insulin” value in test [4] (setting [8]) is “more effectively than insulin”; in test [7] (setting [8]), “greater glucose uptake in rat L6 myoblast than did insulin”. Besides, the glucose uptake entry in test [4] (various concentrations for 3 hr, absence of insulin) was “efficacious at stimulating glucose uptake; also recorded: stimulates glucose uptake”; in test [5] (50 μM Compound 2 for various times, no insulin) it was “stimulates glucose uptake”; in test [6] (without insulin), “stimulates glucose uptake”; in test [7] (various concentrations for 3 hr, no insulin) it was “stimulates glucose uptake”. In addition, the insulin-stimulated glucose uptake result is “enhances insulin-stimulated glucose uptake” in test [5] (compound 3 hr in serum-free medium, then various concentrations of insulin 20 min); “enhanced insulin-stimulated glucose uptake” in test [6] (then 100 nM insulin 20 min); “enhances insulin-stimulated glucose uptake” in test [7] (50 μM for 3 hr, then 100 nM insulin 20 min). Further, the “level of stimulated glucose uptake compared with insulin” value in test [6] (absence of insulin vs 100 nM insulin) is on record as “comparable to the level of insulin-stimulated glucose uptake”. For the same compound, the “time to stimulation of glucose uptake” value in test [7] (50 μM for various times) is given as at most 20 min.

In general, EC50 refers to the concentration needed to bring the measured effect to its halfway point. Low readings indicate greater potency, high ones weaker potency.

For the origin of these results see patent publication US20080306114A1, “Human G Protein-Coupled Receptor and Modulators Thereof for the Treatment of Hyperglycemia and Related Disorders” (Arena Pharmaceuticals, Inc, priority 2004, published 2008).
